From patent US20230157952A1, “METHOD FOR IMPROVING THE STABILITY OF A PHARMACEUTICAL COMPOSITION COMPRISING A HIGH PENETRATION DRUG, AND THE PHARMACEUTICAL COMPOSITION OBTAINED THEREFROM” (Techfields Inc., priority 2020, published 2023)

Legend:
[1] = Effect of temperature (and pH) on the stability of the solution (purity); assay type: physicochemical; details: 7% solution in water
[2] = Effect of concentration on the stability of the solution (purity over time); details: in water at 25° C.

In the case of `CCN(CC)CCOC(=O)C(C)c1ccc2oc(-c3ccc(Cl)cc3)nc2c1.Cl` (stereo not shown) [2-(diethylamino)ethyl 2-[(4-chlorophenyl)-5-benzoxazole]propionate•HCl], the “Stability of the solution at a temperature higher than 40° C. and a pH lower than 3 or greater than 6” value [1] is reported as “not stable”, the “Purity at Day 3” value ([2]; 0.01 wt %) is reported as 84.7% and the “Purity at Day 7” value ([2]; 0.01 wt %) is reported as 73.9%. For the same compound, the “Purity at Day 14” value ([2]; 0.01 wt %) was 62.3%, the “Purity at Day 21” value ([2]; 0.01 wt %) was 52.9% and the “Purity at Day 28” value ([2]; 0.01 wt %) was 42.9%. The “Purity at hr 0” value ([2]; 0.01 wt %) was 97.8%, the “Purity at Day 3” value ([2]; 0.1 wt %) was 96.7% and the “Purity at Day 7” value ([2]; 0.1 wt %) was 95.5%. The “Purity at Day 14” value ([2]; 0.1 wt %) was 91.1%, the “Purity at Day 21” value ([2]; 0.1 wt %) was 87.2% and the “Purity at Day 28” value ([2]; 0.1 wt %) was 83.0%. For the same compound, the “Purity at hr 0” value ([2]; 0.1 wt %) was 97.9%, the “Purity at Day 3” value ([2]; 1 wt %) was 97.0% and the “Purity at Day 7” value ([2]; 1 wt %) was 96.0%. The “Purity at Day 14” value ([2]; 1 wt %) was 94.0%, the “Purity at Day 21” value ([2]; 1 wt %) was 92.3% and the “Purity at Day 28” value ([2]; 1 wt %) was 89.9%. The “Purity at hr 0” value ([2]; 1 wt %) was 98.1%, the “Purity at Day 3” value ([2]; 3 wt %) was 97.5% and the “Purity at Day 7” value ([2]; 3 wt %) was 97.0%. The “Purity at Day 14” value ([2]; 3 wt %) was 95.7%, the “Purity at Day 21” value ([2]; 3 wt %) was 94.3% and the “Purity at Day 28” value ([2]; 3 wt %) was 92.8%. The “Purity at hr 0” value ([2]; 3 wt %) was 98.3%, the “Purity at Day 3” value ([2]; 5 wt %) was 98.0% and the “Purity at Day 7” value ([2]; 5 wt %) was 97.9%. The “Purity at Day 14” value ([2]; 5 wt %) was 97.6%, the “Purity at Day 21” value ([2]; 5 wt %) was 97.0% and the “Purity at Day 28” value ([2]; 5 wt %) was 96.3%. The “Purity at hr 0” value ([2]; 5 wt %) was 98.5%, the “Purity at Day 3” value ([2]; 7 wt %) was 98.4% and the “Purity at Day 7” value ([2]; 7 wt %) was 98.2%. The “Purity at Day 14” value ([2]; 7 wt %) was 98.0%, the “Purity at Day 21” value ([2]; 7 wt %) was 97.8% and the “Purity at Day 28” value ([2]; 7 wt %) was 97.4%. For the same compound, the “Purity at hr 0” value ([2]; 7 wt %) was 98.6%, the “Purity at Day 3” value ([2]; 8 wt %) was 98.5% and the “Purity at Day 7” value ([2]; 8 wt %) was 98.3%. For the same compound, the “Purity at Day 14” value ([2]; 8 wt %) was 98.1%, the “Purity at Day 21” value ([2]; 8 wt %) was 97.8% and the “Purity at Day 28” value ([2]; 8 wt %) was 97.4%. For the same compound, the “Purity at hr 0” value ([2]; 8 wt %) was 98.6%, the “Purity at Day 3” value ([2]; 10 wt %) was 98.4% and the “Purity at Day 7” value ([2]; 10 wt %) was 98.3%. For the same compound, the “Purity at Day 14” value ([2]; 10 wt %) was 98.2%, the “Purity at Day 21” value ([2]; 10 wt %) was 97.7% and the “Purity at Day 28” value ([2]; 10 wt %) was 97.3%. The “Purity at hr 0” value ([2]; 10 wt %) was 98.5%, the “Purity at Day 3” value ([2]; 15 wt %) was 98.5% and the “Purity at Day 7” value ([2]; 15 wt %) was 98.3%. For the same compound, the “Purity at Day 14” value ([2]; 15 wt %) was 98.1%, the “Purity at Day 21” value ([2]; 15 wt %) was 97.7% and the “Purity at Day 28” value ([2]; 15 wt %) was 97.5%. The “Purity at hr 0” value ([2]; 15 wt %) was 98.6%, the “Purity at Day 3” value ([2]; 20 wt %) was 98.4% and the “Purity at Day 7” value ([2]; 20 wt %) was 98.3%. The “Purity at Day 14” value ([2]; 20 wt %) was 98.2%, the “Purity at Day 21” value ([2]; 20 wt %) was 97.8% and the “Purity at Day 28” value ([2]; 20 wt %) was 97.4%. The “Purity at hr 0” value ([2]; 20 wt %) was 98.5%, the “Purity at Day 3” value ([2]; 30 wt %) was 98.5% and the “Purity at Day 7” value ([2]; 30 wt %) was 98.3%. The “Purity at Day 14” value ([2]; 30 wt %) was 98.0%, the “Purity at Day 21” value ([2]; 30 wt %) was 97.7% and the “Purity at Day 28” value ([2]; 30 wt %) was 97.3%. For the same compound, the “Purity at hr 0” value ([2]; 30 wt %) was 98.6%, the “Purity at Day 3” value ([2]; 50 wt %) was 98.5% and the “Purity at Day 7” value ([2]; 50 wt %) was 98.3%. The “Purity at Day 14” value ([2]; 50 wt %) was 98.0%, the “Purity at Day 21” value ([2]; 50 wt %) was 97.9% and the “Purity at Day 28” value ([2]; 50 wt %) was 97.5%. For the same compound, the “Purity at hr 0” value ([2]; 50 wt %) was 98.5% and the “Stability when the concentration is 0.1% or lower” value [2] was “not stable”.

In the case of `CCN(CC)CCOC(=O)CCc1ccc2cc(OC)ccc2c1.Cl` [2-(diethylamino)ethyl 3-(6-methoxy-2-naphthyl)propionate•HCl], the “Stability of the solution at a temperature higher than 40° C. and a pH lower than 3 or greater than 6” value [1] is reported as “not stable”, the “Purity at Day 3” value ([2]; 0.01 wt %) is reported as 84.7% and the “Purity at Day 7” value ([2]; 0.01 wt %) is reported as 73.9%. For the same compound, the “Purity at Day 14” value ([2]; 0.01 wt %) was 62.3%, the “Purity at Day 21” value ([2]; 0.01 wt %) was 53.9% and the “Purity at Day 28” value ([2]; 0.01 wt %) was 45.9%. For the same compound, the “Purity at hr 0” value ([2]; 0.01 wt %) was 97.7%, the “Purity at Day 3” value ([2]; 0.1 wt %) was 96.7% and the “Purity at Day 7” value ([2]; 0.1 wt %) was 95.5%. The “Purity at Day 14” value ([2]; 0.1 wt %) was 91.1%, the “Purity at Day 21” value ([2]; 0.1 wt %) was 87.2% and the “Purity at Day 28” value ([2]; 0.1 wt %) was 83.8%. The “Purity at hr 0” value ([2]; 0.1 wt %) was 97.9%, the “Purity at Day 3” value ([2]; 1 wt %) was 97.0% and the “Purity at Day 7” value ([2]; 1 wt %) was 96.0%. For the same compound, the “Purity at Day 14” value ([2]; 1 wt %) was 94.0%, the “Purity at Day 21” value ([2]; 1 wt %) was 92.3% and the “Purity at Day 28” value ([2]; 1 wt %) was 90.9%. The “Purity at hr 0” value ([2]; 1 wt %) was 98.1%, the “Purity at Day 3” value ([2]; 3 wt %) was 97.7% and the “Purity at Day 7” value ([2]; 3 wt %) was 97.0%. For the same compound, the “Purity at Day 14” value ([2]; 3 wt %) was 96.0%, the “Purity at Day 21” value ([2]; 3 wt %) was 94.8% and the “Purity at Day 28” value ([2]; 3 wt %) was 93.8%. The “Purity at hr 0” value ([2]; 3 wt %) was 98.3%, the “Purity at Day 3” value ([2]; 5 wt %) was 98.2% and the “Purity at Day 7” value ([2]; 5 wt %) was 98.0%. For the same compound, the “Purity at Day 14” value ([2]; 5 wt %) was 97.6%, the “Purity at Day 21” value ([2]; 5 wt %) was 97.0% and the “Purity at Day 28” value ([2]; 5 wt %) was 96.3%. The “Purity at hr 0” value ([2]; 5 wt %) was 98.4%, the “Purity at Day 3” value ([2]; 7 wt %) was 98.4% and the “Purity at Day 7” value ([2]; 7 wt %) was 98.2%. The “Purity at Day 14” value ([2]; 7 wt %) was 98.0%, the “Purity at Day 21” value ([2]; 7 wt %) was 97.8% and the “Purity at Day 28” value ([2]; 7 wt %) was 97.4%. For the same compound, the “Purity at hr 0” value ([2]; 7 wt %) was 98.5%, the “Purity at Day 3” value ([2]; 8 wt %) was 98.4% and the “Purity at Day 7” value ([2]; 8 wt %) was 98.3%. The “Purity at Day 14” value ([2]; 8 wt %) was 98.0%, the “Purity at Day 21” value ([2]; 8 wt %) was 97.9% and the “Purity at Day 28” value ([2]; 8 wt %) was 97.5%. For the same compound, the “Purity at hr 0” value ([2]; 8 wt %) was 98.4%, the “Purity at Day 3” value ([2]; 10 wt %) was 98.4% and the “Purity at Day 7” value ([2]; 10 wt %) was 98.3%. The “Purity at Day 14” value ([2]; 10 wt %) was 98.2%, the “Purity at Day 21” value ([2]; 10 wt %) was 98.0% and the “Purity at Day 28” value ([2]; 10 wt %) was 97.5%. The “Purity at hr 0” value ([2]; 10 wt %) was 98.5%, the “Purity at Day 3” value ([2]; 15 wt %) was 98.4% and the “Purity at Day 7” value ([2]; 15 wt %) was 98.2%. The “Purity at Day 14” value ([2]; 15 wt %) was 98.1%, the “Purity at Day 21” value ([2]; 15 wt %) was 98.0% and the “Purity at Day 28” value ([2]; 15 wt %) was 97.6%. The “Purity at hr 0” value ([2]; 15 wt %) was 98.5%, the “Purity at Day 3” value ([2]; 20 wt %) was 98.4% and the “Purity at Day 7” value ([2]; 20 wt %) was 98.2%. For the same compound, the “Purity at Day 14” value ([2]; 20 wt %) was 98.2%, the “Purity at Day 21” value ([2]; 20 wt %) was 98.1% and the “Purity at Day 28” value ([2]; 20 wt %) was 97.5%. The “Purity at hr 0” value ([2]; 20 wt %) was 98.4%, the “Purity at Day 3” value ([2]; 30 wt %) was 98.4% and the “Purity at Day 7” value ([2]; 30 wt %) was 98.3%. The “Purity at Day 14” value ([2]; 30 wt %) was 98.1%, the “Purity at Day 21” value ([2]; 30 wt %) was 98.1% and the “Purity at Day 28” value ([2]; 30 wt %) was 97.5%. For the same compound, the “Purity at hr 0” value ([2]; 30 wt %) was 98.5%, the “Purity at Day 3” value ([2]; 50 wt %) was 98.5% and the “Purity at Day 7” value ([2]; 50 wt %) was 98.3%. The “Purity at Day 14” value ([2]; 50 wt %) was 98.1%, the “Purity at Day 21” value ([2]; 50 wt %) was 97.8% and the “Purity at Day 28” value ([2]; 50 wt %) was 97.6%. For the same compound, the “Purity at hr 0” value ([2]; 50 wt %) was 98.5% and the “Stability when the concentration is 0.1% or lower” value [2] was “not stable”.
